This note sets out measurements from patent US10611740B2, “Aryl dihydro-2H-benzo[b][1,4]oxazine sulfonamide and related compounds for use as agonists of RORγ and the treatment of disease” (Lycera Corporation, priority 2015, dated 2020).

Where only a bound is given, the exact number is not on record here.

In test [1] the target is T1, Gal4-RORγ-LBD (Homo sapiens, UniProt P51449).
T1 construct: expressed in transfected cells; host or cells: HEK-293 cells (pcDNA3.1neo plasmid)
T1 sequence (P51449 269-508 limits assumed): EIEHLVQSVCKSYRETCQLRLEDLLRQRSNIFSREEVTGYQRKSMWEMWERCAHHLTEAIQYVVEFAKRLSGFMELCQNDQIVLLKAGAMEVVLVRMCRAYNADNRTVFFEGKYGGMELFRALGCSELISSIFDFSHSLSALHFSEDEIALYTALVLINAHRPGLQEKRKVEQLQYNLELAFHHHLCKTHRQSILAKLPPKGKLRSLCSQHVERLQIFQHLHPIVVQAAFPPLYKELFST
The test is described as follows: Gal4-RORγ Luciferase Reporter Assay in HEK-293T Cells. The class given is cell-based. The settings on record: HEK-293 cells, luciferase reporter, with 2 μM ursolic acid. An outline of the steps: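 In transfected HEK-293 cells (Gal4-RORγ-LBD, Gal4-luciferase), test agents with 2 μM ursolic acid were incubated overnight at 37 °C before luminescent detection. Values are relative to the ursolic-acid-free, compound-free signal (100).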
In general terms: Reporter assays use an easily measured gene product as a stand-in for the process of interest.

Test [2] concerns the target T2, RORγ-LBD (Homo sapiens, UniProt P51449).
T2 construct: made in house; host or cells: SF9 cells (baculovirus)
T2 sequence (P51449 269-508 limits assumed): T1 sequence (P51449 269-508 limits assumed)
Kind of test: RORγ-Ligand Binding Domain (LBD) TR-FRET Assay.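 As to TR-FRET Assay Max Response: 665/615 nm ratio relative to signal without ursolic acid or compound set at 100.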 The class given is biochemical. The essentials:
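Lysate from SF9 cells expressing His-RORγ-LBD is diluted to about 3 nM final in 50 mM Tris pH 7.0 assay buffer. A biotin-tagged SRC1 LXXLL peptide goes in at 200 nM final, plus ursolic acid at 2 μM final. Test compounds carry 1% DMSO final; signal read by TR-FRET.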

On to `Cc1ncccc1-c1ccc2c(c1)N(S(=O)(=O)c1cccc(C(F)(F)F)c1)C[C@H](CCC(=O)O)O2` [Compound 4AE, (S)-3-(6-(2-methylpyridin-3-yl)-4-((3-(trifluoromethyl)-phenyl)sulfonyl)-3,4-dihydro-2H-benzo[b][1,4]oxazin-2-yl)propanoic acid], for which, in test [1], the EC50 fell in the range of 500 to 5000 nM and the “Gal4-RORγ Assay Max Response” value is listed as “** (The symbol “**” indicates a value in the range of greater than 90 to 150)”. Besides, in test [2], the EC50 was < 500 nM and the “TR-FRET Assay Max Response” value is “**** (The symbol “****” indicates a value greater than 200)”.
The corresponding values for `Cc1ncc(F)cc1-c1ccc2c(c1)N(S(=O)(=O)c1cccc(C(F)(F)F)c1)C[C@H](CCC(=O)O)O2` [Compound 4AF, (S)-3-(6-(5-fluoro-2-methylpyridin-3-yl)-4-((3-(trifluoromethyl)phenyl)sulfonyl)-3,4-dihydro-2H-benzo[b][1,4]oxazin-2-yl)propanoic acid] are < 500 nM, “** (The symbol “**” indicates a value in the range of greater than 90 to 150)”, < 500 nM and “**** (The symbol “****” indicates a value greater than 200)”.
For `Cc1c(F)cccc1-c1ccc2c(c1)N(S(=O)(=O)c1cccc(C(F)(F)F)c1)C[C@H](CCC(=O)O)O2` [Compound 4AG, (S)-3-(6-(3-fluoro-2-methylphenyl)-4-((3-(trifluoromethyl)phenyl)sulfonyl)-3,4-dihydro-2H-benzo[b][1,4]oxazin-2-yl)propanoic acid], in that order: < 500 nM, “** (The symbol “**” indicates a value in the range of greater than 90 to 150)”, < 500 nM and “**** (The symbol “****” indicates a value greater than 200)”.
For `CCc1cccc(-c2ccc3c(c2)N(S(=O)(=O)c2cccc(C(F)(F)F)c2)C[C@H](CCC(=O)O)O3)c1` [Compound 4AH, (S)-3-(6-(3-ethylphenyl)-4-((3-(trifluoromethyl)phenyl)-sulfonyl)-3,4-dihydro-2H-benzo[b][1,4]oxazin-2-yl)propanoic acid], in that order: < 500 nM, “** (The symbol “**” indicates a value in the range of greater than 90 to 150)”, < 500 nM and “**** (The symbol “****” indicates a value greater than 200)”.
As to `Cc1c(F)cc(F)cc1-c1ccc2c(c1)N(S(=O)(=O)c1cccc(C(F)(F)F)c1)C[C@H](CCC(=O)O)O2` [Compound 4AJ, (S)-3-(6-(3,5-difluoro-2-methylphenyl)-4-((3-(trifluoromethyl)phenyl)-sulfonyl)-3,4-dihydro-2H-benzo[b][1,4]oxazin-2-yl)propanoic acid], in test [1], the EC50 was < 500 nM and the “Gal4-RORγ Assay Max Response” value was “** (The symbol “**” indicates a value in the range of greater than 90 to 150)”. In test [2], the EC50 is < 500 nM and the “TR-FRET Assay Max Response” value is reported as “**** (The symbol “****” indicates a value greater than 200)”.
Turning to `O=C(O)CC[C@H]1CN(S(=O)(=O)c2cccc(C(F)(F)F)c2)c2cc(-c3cc(F)cc(F)c3F)ccc2O1` [Compound 4AK, (S)-3-(4-((3-(trifluoromethyl)-phenyl)sulfonyl)-6-(2,3,5-trifluorophenyl)-3,4-dihydro-2H-benzo[b][1,4]oxazin-2-yl)propanoic acid], in test [1], the EC50 was < 500 nM and the “Gal4-RORγ Assay Max Response” value was “** (The symbol “**” indicates a value in the range of greater than 90 to 150)”. Moreover, in test [2], the EC50 was < 500 nM and the “TR-FRET Assay Max Response” value is recorded as “**** (The symbol “****” indicates a value greater than 200)”.
As for `CN(C)c1cncc(-c2ccc3c(c2)N(S(=O)(=O)c2cccc(C(F)(F)F)c2)C[C@H](CCC(=O)O)O3)n1` [Compound 4AL, (S)-3-(6-(6-(dimethylamino)-pyrazin-2-yl)-4-((3-(trifluoromethyl)phenyl)-sulfonyl)-3,4-dihydro-2H-benzo[b][1,4]oxazin-2-yl)propanoic acid], in test [1], the concentration for a half-maximal effect (EC50) was < 500 nM and the “Gal4-RORγ Assay Max Response” value was “** (The symbol “**” indicates a value in the range of greater than 90 to 150)”. In addition, in test [2], the EC50 is < 500 nM and the “TR-FRET Assay Max Response” value is listed as “**** (The symbol “****” indicates a value greater than 200)”.
Consider `CNc1cccc(-c2ccc3c(c2)N(S(=O)(=O)c2cccc(C(F)(F)F)c2)C[C@H](CCC(=O)O)O3)n1` [Compound 4AM, (S)-3-(6-(6-(methylamino)-pyridin-2-yl)-4-((3-(trifluoromethyl)phenyl)-sulfonyl)-3,4-dihydro-2H-benzo[b][1,4]oxazin-2-yl)propanoic acid], for which, in test [1], the EC50 was 500 to 5000 nM and the “Gal4-RORγ Assay Max Response” value is reported as “** (The symbol “**” indicates a value in the range of greater than 90 to 150)”. Further, in test [2], the concentration giving a half-maximal response (EC50) was < 500 nM and the “TR-FRET Assay Max Response” value is on record as “**** (The symbol “****” indicates a value greater than 200)”.
For `Cc1cc(-c2ccc3c(c2)N(S(=O)(=O)c2cccc(C(F)(F)F)c2)C[C@H](CCC(=O)O)O3)nc(N(C)C)c1` [Compound 4AN, (S)-3-(6-(6-(dimethylamino)-4-methylpyridin-2-yl)-4-((3-(trifluoromethyl)phenyl)sul-fonyl)-3,4-dihydro-2H-benzo[b][1,4]oxazin-2-yl)propanoic acid], in that order: < 500 nM, “** (The symbol “**” indicates a value in the range of greater than 90 to 150)”, < 500 nM and “**** (The symbol “****” indicates a value greater than 200)”.
As for `Cc1ccc(N(C)C)nc1-c1ccc2c(c1)N(S(=O)(=O)c1cccc(C(F)(F)F)c1)C[C@H](CCC(=O)O)O2` [Compound 4AO, (S)-3-(6-(6-(dimethylamino)-3-methylpyridin-2-yl)-4-((3-(trifluoromethyl)phenyl)sul-fonyl)-3,4-dihydro-2H-benzo[b][1,4]oxazin-2-yl)propanoic acid], in test [1], the EC50 was > 10000 nM and the “Gal4-RORγ Assay Max Response” value was “* (The symbol “*” indicates a value in the range of 25 to 90)”. Also, in test [2], the EC50 fell in the range of 500 to 5000 nM and the “TR-FRET Assay Max Response” value was “* (The symbol “*” indicates a value in the range of 25 to 90)”.
As for `COc1cc(-c2ccc3c(c2)N(S(=O)(=O)c2cccc(C(F)(F)F)c2)C[C@H](CCC(=O)O)O3)nc(N(C)C)c1` [Compound 4AP, (S)-3-(6-(6-(dimethylamino)-4-methoxypyridin-2-yl)-4-((3-(trifluoromethyl)phenyl)sul-fonyl)-3,4-dihydro-2H-benzo[b][1,4]oxazin-2-yl)propanoic acid], in test [1], the EC50 was < 500 nM and the “Gal4-RORγ Assay Max Response” value is recorded as “** (The symbol “**” indicates a value in the range of greater than 90 to 150)”. For the same compound, in test [2], the EC50 was < 500 nM and the “TR-FRET Assay Max Response” value is reported as “**** (The symbol “****” indicates a value greater than 200)”.

Usually EC50 stands for the concentration at which the effect is half-maximal. Low readings indicate higher potency in that assay, high ones lower potency in that assay.
